# ChEMBL document CHEMBL3885861, “Open TG-GATES”
# Species on record: Rattus norvegicus
# Assay: Open TG-GATES - Regimen: Single
# Type: toxicity, organism-based, Sprague-Dawley
# Design: regimen Single, gender Male, age 6 weeks
# Details: in vivo, po, 600 mg/kg, route gavage, dose level High; for APTT / Bas / Eos / Fbg / Hb / Ht / Lym / MCH / MCHC / MCV / Mono / Neu / PT / Plat / RBC / Ret / WBC: tissue Blood; for KIDNEY_L / KIDNEY_R / KIDNEY_TOTAL: tissue Kidney; for LIVER: tissue Liver; for A/G / ALP / ALT / AST / BUN / CRE / Ca / Cl / DBIL / GLC / IP / K / LDH / Na / PL / RALB / TBIL / TC / TG / TP / gamma-GTP: tissue Plasma
compound,measurement,setting,value
CCOC(=O)[C@H](CCc1ccccc1)N[C@@H](C)C(=O)N1CCC[C@H]1C(=O)O,TERMINAL_BW,3 h,218.7 g
same,APTT,3 h,16.5 s
same,Bas,3 h,0%
same,Eos,3 h,1.4%
same,Fbg,3 h,212 mg/dL
same,Hb,3 h,13.3 g/dL
same,Ht,3 h,40.4%
same,Lym,3 h,74%
same,MCH,3 h,21.6 pg
same,MCHC,3 h,32.9%
same,MCV,3 h,65.9 fL
same,Mono,3 h,9.8%
same,Neu,3 h,14.6%
same,PT,3 h,12 s
same,Plat,3 h,109.7 x10_4/uL
same,RBC,3 h,614.2 x10_4/ul
same,Ret,3 h,8.9%
same,WBC,3 h,93.4 x10_2/uL
same,KIDNEY_L,3 h,1 g
same,KIDNEY_R,3 h,1 g
same,KIDNEY_TOTAL,3 h,1.9 g
same,LIVER,3 h,10 g
same,A/G,3 h,2
same,ALP,3 h,719.2 IU/L
same,ALT,3 h,83.4 IU/L
same,AST,3 h,70.2 IU/L
same,BUN,3 h,22.8 mg/dL
same,CRE,3 h,0.6 mg/dL
same,Ca,3 h,10.3 mg/dL
same,Cl,3 h,106.8 meq/L
same,DBIL,3 h,0.022 mg/dL
same,GLC,3 h,201 mg/dL
same,IP,3 h,9 mg/dL
same,K,3 h,4.9 meq/L
same,LDH,3 h,103.4 IU/L
same,Na,3 h,138.6 meq/L
same,PL,3 h,125.4 mg/dL
same,RALB,3 h,3.6 g/dL
same,TBIL,3 h,0.3 mg/dL
same,TC,3 h,73.2 mg/dL
same,TG,3 h,59.4 mg/dL
same,TP,3 h,5.4 g/dL
same,gamma-GTP,3 h,2.4 IU/L
same,TERMINAL_BW,6 h,215.5 g
same,APTT,6 h,16.6 s
same,Bas,6 h,0%
same,Eos,6 h,1.2%
same,Fbg,6 h,211.2 mg/dL
same,Hb,6 h,13.3 g/dL
same,Ht,6 h,40.9%
same,Lym,6 h,75.4%
same,MCH,6 h,21.2 pg
same,MCHC,6 h,32.7%
same,MCV,6 h,64.8 fL
same,Mono,6 h,7.4%
same,Neu,6 h,16.2%
same,PT,6 h,11.9 s
same,Plat,6 h,113.3 x10_4/uL
same,RBC,6 h,632.4 x10_4/ul
same,Ret,6 h,8.3%
same,WBC,6 h,96.5 x10_2/uL
same,KIDNEY_L,6 h,1 g
same,KIDNEY_R,6 h,1 g
same,KIDNEY_TOTAL,6 h,2 g
same,LIVER,6 h,9.1 g
same,A/G,6 h,2.2
same,ALP,6 h,701.6 IU/L
same,ALT,6 h,82.8 IU/L
same,AST,6 h,75.8 IU/L
same,BUN,6 h,28.2 mg/dL
same,CRE,6 h,0.6 mg/dL
same,Ca,6 h,10.5 mg/dL
same,Cl,6 h,107.2 meq/L
same,DBIL,6 h,0.022 mg/dL
same,GLC,6 h,207 mg/dL
same,IP,6 h,9.5 mg/dL
same,K,6 h,5.2 meq/L
same,LDH,6 h,100.8 IU/L
same,Na,6 h,138 meq/L
same,PL,6 h,126.2 mg/dL
same,RALB,6 h,3.6 g/dL
same,TBIL,6 h,0.5 mg/dL
same,TC,6 h,68.2 mg/dL
same,TG,6 h,36.8 mg/dL
same,TP,6 h,5.2 g/dL
same,gamma-GTP,6 h,1.6 IU/L
same,TERMINAL_BW,9 h,218.5 g
same,APTT,9 h,16.2 s
same,Bas,9 h,0%
same,Eos,9 h,1%
same,Fbg,9 h,208.8 mg/dL
same,Hb,9 h,12.7 g/dL
same,Ht,9 h,39.2%
same,Lym,9 h,78.6%
same,MCH,9 h,22.1 pg
same,MCHC,9 h,32.4%
same,MCV,9 h,68.3 fL
same,Mono,9 h,4.2%
same,Neu,9 h,16.2%
same,PT,9 h,11.6 s
same,Plat,9 h,111.9 x10_4/uL
same,RBC,9 h,575.2 x10_4/ul
same,Ret,9 h,9.9%
same,WBC,9 h,91.7 x10_2/uL
same,KIDNEY_L,9 h,1 g
same,KIDNEY_R,9 h,1 g
same,KIDNEY_TOTAL,9 h,1.9 g
same,LIVER,9 h,8.5 g
same,A/G,9 h,1.8
same,ALP,9 h,827.2 IU/L
same,ALT,9 h,56.2 IU/L
same,AST,9 h,65.6 IU/L
same,BUN,9 h,40.8 mg/dL
same,CRE,9 h,0.5 mg/dL
same,Ca,9 h,10.9 mg/dL
same,Cl,9 h,109 meq/L
same,DBIL,9 h,0.032 mg/dL
same,GLC,9 h,196.4 mg/dL
same,IP,9 h,11.1 mg/dL
same,K,9 h,5.8 meq/L
same,LDH,9 h,66 IU/L
same,Na,9 h,138.8 meq/L
same,PL,9 h,133.8 mg/dL
same,RALB,9 h,3.4 g/dL
same,TBIL,9 h,0.4 mg/dL
same,TC,9 h,76 mg/dL
same,TG,9 h,26 mg/dL
same,TP,9 h,5.3 g/dL
same,gamma-GTP,9 h,1.8 IU/L
same,TERMINAL_BW,24 h,231.8 g
same,APTT,24 h,16.2 s
same,Bas,24 h,0%
same,Eos,24 h,1.2%
same,Fbg,24 h,215.6 mg/dL
same,Hb,24 h,12.8 g/dL
same,Ht,24 h,38.7%
same,Lym,24 h,72.2%
same,MCH,24 h,21.6 pg
same,MCHC,24 h,33%
same,MCV,24 h,65.4 fL
same,Mono,24 h,13%
same,Neu,24 h,13.8%
same,PT,24 h,10.9 s
same,Plat,24 h,115.6 x10_4/uL
same,RBC,24 h,592.6 x10_4/ul
same,Ret,24 h,9.2%
same,WBC,24 h,103.4 x10_2/uL
same,KIDNEY_L,24 h,1 g
same,KIDNEY_R,24 h,1 g
same,KIDNEY_TOTAL,24 h,2 g
same,LIVER,24 h,12.5 g
same,A/G,24 h,2
same,ALP,24 h,1036 IU/L
same,ALT,24 h,34.4 IU/L
same,AST,24 h,60 IU/L
same,BUN,24 h,20 mg/dL
same,CRE,24 h,0.5 mg/dL
same,Ca,24 h,11.3 mg/dL
same,Cl,24 h,104.4 meq/L
same,DBIL,24 h,0 mg/dL
same,GLC,24 h,207.4 mg/dL
same,IP,24 h,8.9 mg/dL
same,K,24 h,4.8 meq/L
same,LDH,24 h,101.6 IU/L
same,Na,24 h,138.6 meq/L
same,PL,24 h,170.6 mg/dL
same,RALB,24 h,3.8 g/dL
same,TBIL,24 h,0.4 mg/dL
same,TC,24 h,89.6 mg/dL
same,TG,24 h,132.4 mg/dL
same,TP,24 h,5.6 g/dL
same,gamma-GTP,24 h,2.2 IU/L
